Source: US20260355196A1, “INHIBITORS AND DEGRADERS OF PIP4K PROTEIN” (Larkspur Biosciences, Inc., priority 2023, published 2026)

Target: T1, PIP4K2C (Homo sapiens, UniProt Q8TBX8)
T1 sequence (Q8TBX8 1-421): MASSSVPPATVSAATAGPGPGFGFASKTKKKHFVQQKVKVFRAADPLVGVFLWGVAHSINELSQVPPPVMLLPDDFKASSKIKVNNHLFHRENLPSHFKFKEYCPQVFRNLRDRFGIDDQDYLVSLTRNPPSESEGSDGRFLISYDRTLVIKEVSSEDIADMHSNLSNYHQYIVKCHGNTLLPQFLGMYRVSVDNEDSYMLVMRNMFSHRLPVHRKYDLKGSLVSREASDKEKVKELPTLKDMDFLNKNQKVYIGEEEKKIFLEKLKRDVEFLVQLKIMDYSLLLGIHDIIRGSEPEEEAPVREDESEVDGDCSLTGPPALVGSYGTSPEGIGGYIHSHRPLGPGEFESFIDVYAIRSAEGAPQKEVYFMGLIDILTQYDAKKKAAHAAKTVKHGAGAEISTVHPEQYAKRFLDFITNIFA
Assay: HiBiT PIP4K2C degradation assay in MOLT-4 cells (endogenous PIP4K2C C-terminally tagged with HiBiT)
Format: cell-based
Parameters: untagged in primary human PBMCs and monocyte-derived dendritic cells
Settings: 6 hours of incubation time, rather than 24 hours; MOLT-4, top concentration 10 micromolar; read-out: HiBIT-degradation MOLT4 PIP4k2C DC50 (6 hours, marked *)
How it was run: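 MOLT-4 knock-in line, HiBiT on PIP4K2C C-terminus; 22,500 cells/well; 10-pt 3-fold titration from 10 micromolar, n=2; 24 h or 6 h, 37 C, 5% CO2; Nano-Glo HiBiT lytic luminescence; DC50 via Hill equation.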

SMILES | DC50 [nM]
O=C1CCC(Nc2ccc(N3CCN(CC4(O)CCN(C(=O)[C@H]5CC[C@H](Nc6ncc(F)c(-c7cccc(-c8ccccc8)c7)n6)CC5)CC4)CC3)c(F)c2)C(=O)N1 (stereo partly drawn) [Compound 463, trans-3-[3-fluoro-4-[4-[[1-[4-[[5-fluoro-4-(3-phenylphenyl)pyrimidin-2-yl]amino]cyclohexanecarbonyl]-4-hydroxy-4-piperidyl]methyl]piperazin-1-yl]anilino]piperidine-2,6-dione] | < 500
O=C1CCC(Nc2ccc(C3CCN(CC4(O)CCN(C(=O)[C@H]5CC[C@H](Nc6ncc(F)c(-c7cccc(-c8ccccc8)c7)n6)CC5)CC4)CC3)c(F)c2)C(=O)N1 (stereo partly drawn) [Compound 464, 3-((4-(1-((1-(trans-4-((4-([1,1′-biphenyl]-3-yl)-5-fluoropyrimidin-2-yl)amino)cyclohexane-1-carbonyl)-4-hydroxypiperidin-4-yl)methyl)piperidin-4-yl)-3-fluorophenyl)amino)piperidine-2,6-dione] | < 500
O=C1CCC(Nc2ccc(C3CCN(CC4CCN(C(=O)N5CCC(Nc6ncc(F)c(-c7cccc(-n8ccccc8=O)c7)n6)CC5)CC4)CC3)c(F)c2)C(=O)N1 (stereo not drawn) [Compound 465, 3-((3-fluoro-4-(1-((1-(4-((5-fluoro-4-(3-(2-oxopyridin-1 (2H)-yl)phenyl)pyrimidin-2-yl)amino)piperidine-1-carbonyl)piperidin-4-yl)methyl)piperidin-4-yl)phenyl)amino)piperidine-2,6-dione] | < 500
O=C1CCC(Nc2ccc(C3CCN(CC4CCN(C(=O)[C@H]5CC[C@H](Nc6ncc(F)c(-c7cccc(-c8ccccc8)c7)n6)CC5)CC4)CC3)c(F)c2)C(=O)N1 (stereo partly drawn) [Compound 466, 3-((4-(1-((1-(trans-4-((4-([1,1′-biphenyl]-3-yl)-5-fluoropyrimidin-2-yl)amino)cyclohexane-1-carbonyl)piperidin-4-yl)methyl)piperidin-4-yl)-3-fluorophenyl)amino)piperidine-2,6-dione] | < 500
Cn1nc(C2CCC(=O)NC2=O)c2ccc(C3CCN(CC4CCN(C(=O)O[C@H]5CC[C@H](Nc6ncc(F)c(-c7cccc(-n8ccccc8=O)c7)n6)CC5)CC4)CC3)cc21 (stereo partly drawn) [Compound 467, trans-4-((5-fluoro-4-(3-(2-oxopyridin-1 (2H)-yl)phenyl)pyrimidin-2-yl)amino)cyclohexyl 4-((4-(3-(2,6-dioxopiperidin-3-yl)-1-methyl-1H-indazol-6-yl)piperidin-1-yl)methyl)piperidine-1-carboxylate] | < 500
O=C1CCC(Nc2ccc(C3CCN(CC4CCN(C(=O)[C@H]5CC[C@H](Nc6ncc(F)c(-c7cccc(C(=O)N8CC[C@H](O)C8)c7)n6)CC5)CC4)CC3)c(F)c2)C(=O)N1 (stereo partly drawn) [Compound 468, trans-3-((3-fluoro-4-(1-((1-(4-((5-fluoro-4-(3-((S)-3-hydroxypyrrolidine-1-carbonyl)phenyl)pyrimidin-2-yl)amino)cyclohexane-1-carbonyl)piperidin-4-yl)methyl)piperidin-4-yl)phenyl)amino)piperidine-2,6-dione] | < 500
O=C1CCC(Nc2ccc(C3CCN(CCC4CCN(C(=O)O[C@H]5CC[C@H](Nc6ncc(F)c(-c7cccc(-c8ccccc8)c7)n6)CC5)CC4)CC3)c(F)c2)C(=O)N1 (stereo partly drawn) [Compound 469, trans-4-((4-([1,1′-biphenyl]-3-yl)-5-fluoropyrimidin-2-yl)amino)cyclohexyl 4-(2-(4-(4-((2,6-dioxopiperidin-3-yl)amino)-2-fluorophenyl)piperidin-1-yl)ethyl)piperidine-1-carboxylate] | < 500
Cc1ccn(-c2cccc(-c3nc(N[C@H]4CC[C@H](C(=O)N5CCC(O)(CN6CCN(c7ccc(NC8CCC(=O)NC8=O)cc7F)CC6)CC5)CC4)ncc3F)c2)c(=O)c1 (stereo partly drawn) [Compound 470, trans-3-((3-fluoro-4-(4-((1-(4-((5-fluoro-4-(3-(4-methyl-2-oxopyridin-1 (2H)-yl)phenyl)pyrimidin-2-yl)amino)cyclohexane-1-carbonyl)-4-hydroxypiperidin-4-yl)methyl)piperazin-1-yl)phenyl)amino)piperidine-2,6-dione] | < 500
Cc1ccn(-c2cccc(-c3nc(N[C@H]4CC[C@H](C(=O)N5CCC(CN6CCN(c7ccc(NC8CCC(=O)NC8=O)cc7F)CC6)CC5)CC4)ncc3F)c2)c(=O)c1 (stereo partly drawn) [Compound 471, trans-3-((3-fluoro-4-(4-((1-(4-((5-fluoro-4-(3-(4-methyl-2-oxopyridin-1 (2H)-yl)phenyl)pyrimidin-2-yl)amino)cyclohexane-1-carbonyl)piperidin-4-yl)methyl)piperazin-1-yl)phenyl)amino)piperidine-2,6-dione] | < 500
Cc1ccn(-c2cccc(-c3nc(N[C@H]4CC[C@H](C(=O)N5CCC(O)(CN6CCC(c7ccc(NC8CCC(=O)NC8=O)cc7F)CC6)CC5)CC4)ncc3F)c2)c(=O)c1 (stereo partly drawn) [Compound 472, trans-3-[3-fluoro-4-[1-[[1-[4-[[5-fluoro-4-[3-(4-methyl-2-oxo-1-pyridyl)phenyl]pyrimidin-2-yl]amino]cyclohexanecarbonyl]-4-hydroxy-4-piperidyl]methyl]-4-piperidyl]anilino]piperidine-2,6-dione] | < 500
Cc1ccn(-c2cccc(-c3nc(N[C@H]4CC[C@H](C(=O)N5CCC(CN6CCC(c7ccc(NC8CCC(=O)NC8=O)cc7F)CC6)CC5)CC4)ncc3F)c2)c(=O)c1 (stereo partly drawn) [Compound 473, trans-3-((3-fluoro-4-(1-((1-(4-((5-fluoro-4-(3-(4-methyl-2-oxopyridin-1 (2H)-yl)phenyl)pyrimidin-2-yl)amino)cyclohexane-1-carbonyl)piperidin-4-yl)methyl)piperidin-4-yl)phenyl)amino)piperidine-2,6-dione] | < 500
O=C1CCC(Nc2ccc(C3CCN(C4CCN(C(=O)O[C@H]5CC[C@H](Nc6ncc(F)c(-c7cccc(-n8ccccc8=O)c7)n6)CC5)CC4)CC3)c(F)c2)C(=O)N1 (stereo partly drawn) [Compound 474, trans-4-((5-fluoro-4-(3-(2-oxopyridin-1 (2H)-yl)phenyl)pyrimidin-2-yl)amino)cyclohexyl 4-(4-((2,6-dioxopiperidin-3-yl)amino)-2-fluorophenyl)-[1,4′-bipiperidine]-1′-carboxylate] | < 500
O=C1CCC(Nc2ccc(N3CCN(C4CCN(C(=O)O[C@H]5CC[C@H](Nc6ncc(F)c(-c7cccc(-n8ccccc8=O)c7)n6)CC5)CC4)CC3)c(F)c2)C(=O)N1 (stereo partly drawn) [Compound 475, trans-4-((5-fluoro-4-(3-(2-oxopyridin-1 (2H)-yl)phenyl)pyrimidin-2-yl)amino)cyclohexyl 4-(4-(4-((2,6-dioxopiperidin-3-yl)amino)-2-fluorophenyl)piperazin-1-yl)piperidine-1-carboxylate] | < 500
O=C1CCC(Nc2ccc(N3CCC(N4CCC(NC(=O)[C@H]5CC[C@H](Nc6ncc(F)c(-c7cccc(N8CCOCC8=O)c7)n6)CC5)CC4)C(F)C3)c(F)c2)C(=O)N1 (stereo partly drawn) [Compound 476, trans-N-(1′-(4-((2,6-dioxopiperidin-3-yl)amino)-2-fluorophenyl)-3′-fluoro-[1,4′-bipiperidin]-4-yl)-4-((5-fluoro-4-(3-(3-oxomorpholino)phenyl)pyrimidin-2-yl)amino)cyclohexane-1-carboxamide] | < 500
O=C1CCC(Nc2ccc(C3CCN(CC4CCN(C(=O)[C@H]5CC[C@H](Nc6ncc(F)c(-c7cccc(N8CCCCC8)c7)n6)CC5)CC4)CC3)c(F)c2)C(=O)N1 (stereo partly drawn) [Compound 477, trans-3-((3-fluoro-4-(1-((1-(trans-4-((5-fluoro-4-(3-(piperidin-1-yl)phenyl)pyrimidin-2-yl)amino)cyclohexane-1-carbonyl)piperidin-4-yl)methyl)piperidin-4-yl)phenyl)amino)piperidine-2,6-dione] | < 500
CN(C(=O)[C@H]1CC[C@H](N2CCN(c3ccc(NC4CCC(=O)NC4=O)cc3F)CC2)CC1)[C@H]1CC[C@H](Nc2ncc(F)c(-c3cccc(C4CC4)c3)n2)CC1 (stereo partly drawn) [Compound 478, trans-N-((trans)-4-((4-(3-cyclopropylphenyl)-5-fluoropyrimidin-2-yl)amino)cyclohexyl)-4-(4-(4-((2,6-dioxopiperidin-3-yl)amino)-2-fluorophenyl)piperazin-1-yl)-N-methylcyclohexane-1-carboxamide] | < 500
O=C1CCC(Nc2ccc(C3CCN([C@H]4CC[C@H](NC(=O)[C@H]5CC[C@H](Nc6ncc(F)c(-c7cccc(C8(O)CCC8)n7)n6)CC5)CC4)CC3)c(F)c2)C(=O)N1 (stereo partly drawn) [Compound 479, trans-N-((trans)-4-(4-(4-((2,6-dioxopiperidin-3-yl)amino)-2-fluorophenyl)piperidin-1-yl)cyclohexyl)-4-((5-fluoro-4-(6-(1-hydroxycyclobutyl)pyridin-2-yl)pyrimidin-2-yl)amino)cyclohexane-1-carboxamide] | < 500
O=C1CCC(Nc2ccc(C3CCN([C@H]4CC[C@H](NC(=O)[C@H]5CC[C@H](Nc6ncc(F)c(-c7ccnc(N8CCOCC8=O)c7)n6)CC5)CC4)CC3)c(F)c2)C(=O)N1 (stereo partly drawn) [Compound 480, trans-N-((trans)-4-(4-(4-((2,6-dioxopiperidin-3-yl)amino)-2-fluorophenyl)piperidin-1-yl)cyclohexyl)-4-((5-fluoro-4-(2-(3-oxomorpholino)pyridin-4-yl)pyrimidin-2-yl)amino)cyclohexane-1-carboxamide] | < 500
